From US10571469B2, “Kit for labelling bacteria” (Centre National de la Recherche Scientifique (CNRS), priority 2012, dated 2020)

Legend:
E. coli K12 = assay: Metabolic LPS labelling with KDO-N3, Cu(I) click with A488-yne, fluorescence microscopy; assay type: cell-based, Escherichia coli
Bacillus subtilis = assay: Metabolic labelling with KDO-N3, click chemistry, fluorescence microscopy (negative control strain); assay type: cell-based; settings: Gram positive; KDO-N3 4 mM, 12 hours; A488-yne-Cu(I) click 60 min
Shewanella oneidensis = assay: as above; assay type: cell-based; settings: KDO-N3 4 mM, 12 hours, 28° C.; A488-yne-Cu(I) click 60 min
Staphylococcus aureus = assay: as above; assay type: cell-based; settings: Gram positive; KDO-N3 4 mM, 12 hours; A488-yne-Cu(I) click 60 min
S. typhimurium 12023 = assay: Metabolic labelling with KDO-N3, click chemistry, fluorescence microscopy; assay type: cell-based, Salmonella typhimurium; settings: KDO-N3 4 mM, 12 hours; A488-yne-Cu(I) click 60 min
E. coli 086 = assay: as above; assay type: cell-based, Escherichia coli; settings: KDO-N3 4 mM, 12 hours; A488-yne-Cu(I) click 60 min
[1] = test system: Legionella pneumophila strain Paris; assay type: cell-based; settings: KDO-N3 4 mM, 12 hours; A488-yne-Cu(I) click 60 min
[2] = mixture with B. subtilis, LB, 12 hours, 696 analyzed cells
[3] = mixture with E. coli, LB, 12 hours, 696 analyzed cells

## [N-]=[N+]=NC[C@@H](O)[C@@H](O)[C@H](O)[C@H](O)CC(=O)C(=O)O [KDO-N3, 8-azido-3,8-dideoxy-D-manno-octulosonic acid]
E. coli K12; KDO-N3 4 mM, 12 hours, A488-yne-Cu(I) click 60 min
  cell-surface labeling: efficient and well defined cell-surface labeling
E. coli K12; […], click with TGTA and A488-yne, after 5 min, control without KDO-N3 no signal
  labeling of bacteria (fluorescence): very bright labeling
E. coli K12; after click labelling with A488-yne, 5 min
  location of fluorescence: mostly evident around the cell periphery
E. coli K12 sodA-mCherry; 9 cells, standard method error range about 10%
  E. coli KDO negative: about 2%
E. coli K12 sodA-mCherry; mixture with B. subtilis
  assimilation in E. coli cells of the mixture: assimilated in substantially only cultivable E. coli cells
E. coli K12 sodA-mCherry; [2]
  KDO-N3+ cells, mCherry + (E. coli): 517
  KDO-N3− cells, mCherry + (E. coli): 9
Bacillus subtilis
  cell-surface labeling: no labeling
Shewanella oneidensis
  cell-surface labeling: no labeling
Staphylococcus aureus
  cell-surface labeling: no labeling
S. typhimurium 12023
  cell-surface labeling: efficient and well defined cell-surface labeling
E. coli 086
  cell-surface labeling: efficient and well defined cell-surface labeling
[1]
  cell-surface labeling: efficient and well defined cell-surface labeling
B. subtilis; 4 KDO-N3+ B. subtilis cells
  B. subtilis false positive: about 2%
B. subtilis; mixture with E. coli
  assimilation in B. subtilis cells of the mixture: not in cultivable B. subtilis cells
B. subtilis; [3]
  KDO-N3+ cells, mCherry − (B. subtilis): 4
  KDO-N3− cells, mCherry − (B. subtilis): 166
